molecular target: RORγt (Homo sapiens (Human), UniProt P51449); experiment: Gal4 ligand binding assay (RORγt Gal fusion luciferase reporter assay in HEK293T cells); type: cell-based; settings: RORγt inverse agonists in RORγt Gal fusion assay
Description: The N-terminal DNA binding domains (DBD) of the native RORγ and RORγt receptors have been substituted with that of the yeast GAL4-DBD and stably transfected in HEK293T cells that also stably express luciferase under the regulation by upstream activation sequence of yeast Gal4. These cells constitutively express high level RORγ activity due to binding of endogenous co-factors. Both agonist and inverse agonist activity can be detected. The assay was performed according to kit manufacturer's instructions as follows. 10 mM compound stocks were diluted serially 1:3 with DMSO and further diluted with provided media to generate 10 titration points from 60 μM to 3 nM. These treatment conditions were added to the plates as 2× media in 100 μL volume. Each plate includes a positive control with 10 titration points as well as 6 negative control wells with vehicle only, with final DMSO concentration of 0.2%. RORγ reporter cells were rapidly thawed and added to the plates in 100 μL volume. The plates were incubated for 24 h in a 37° C. humidified 5% CO2 incubator. Media was removed before the addition of room temperature luciferous detection substrate. After 5 minute incubation, relative light units (RLUs) were quantified using a plate reading luminometer. Data was normalized to […] with only 0.2%0DMSO. Before establishing internal controls, ursolic acid was used as control.

Sequence of RORγt (P51449 269-508): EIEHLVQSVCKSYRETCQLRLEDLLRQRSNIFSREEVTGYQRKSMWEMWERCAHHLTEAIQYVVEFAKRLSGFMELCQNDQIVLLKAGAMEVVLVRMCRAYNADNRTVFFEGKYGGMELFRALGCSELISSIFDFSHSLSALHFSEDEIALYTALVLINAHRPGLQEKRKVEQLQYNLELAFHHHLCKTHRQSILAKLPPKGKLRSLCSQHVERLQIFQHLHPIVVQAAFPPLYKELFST

Row | IC50 [µM] | SMILES
1 | > 0.25 | CCc1cc(CN2CC(CNS(C)(=O)=O)C2)ccc1-c1ccc(C(O)(C(F)(F)F)C(F)(F)F)cc1 [Example 32, N-((1-((2-ethyl-4′-(1,1,1,3,3,3-hexafluoro-2-hydroxypropan-2-yl)-[1,1′-biphenyl]-4-yl)methyl)azetidin-3-yl)methyl)methanesulfonamide]
2 | < 0.05 | CCc1cc(CN2CC3(C2)CN(S(C)(=O)=O)C3)ncc1-c1ccc(C(O)(C(F)(F)F)C(F)(F)F)cc1 [Example 60, 2-(4-(4-ethyl-6-((6-(methylsulfonyl)-2,6-diazaspiro[3.3]heptan-2-yl)methyl)pyridin-3-yl)phenyl)-1,1,1,3,3,3-hexafluoropropan-2-ol]
3 | < 0.05 | CCc1c(-c2ccc(C(O)(C(F)(F)F)C(F)(F)F)cc2)ccc(CN2CC3(C2)CN(S(C)(=O)=O)C3)c1F [Example 37, 2-(2′-ethyl-3′-fluoro-4′-((6-(methylsulfonyl)-2,6-diazaspiro[3.3]heptan-2-yl)methyl)-[1,1′-biphenyl]-4-yl)-1,1,1,3,3,3-hexafluoropropan-2-ol]
4 | < 0.05 | COc1cc(CN2CC3(C2)CN(S(C)(=O)=O)C3)ccc1-c1ccc(C(O)(C(F)(F)F)C(F)(F)F)cc1C [Example 57, 1,1,1,3,3,3-hexafluoro-2-(2′-methoxy-2-methyl-4′-((6-(methylsulfonyl)-2,6-diazaspiro[3.3]heptan-2-yl)methyl)-[1,1′-biphenyl]-4-yl)propan-2-ol]
5 | < 0.05 | CCc1cc(CN2CCC3(C2)CN(S(C)(=O)=O)C3)ccc1-c1ccc(C(O)(C(F)(F)F)C(F)(F)F)cc1 [Example 30, 2-(2′-ethyl-4′-((2-(methylsulfonyl)-2,6-diazaspiro[3.4]octan-6-yl)methyl)-[1,1′-biphenyl]-4-yl)-1,1,1,3,3,3-hexafluoropropan-2-ol]
6 | < 0.05 | CS(=O)(=O)N1CC2(CN(Cc3cc(F)c(-c4ccc(C(O)(C(F)(F)F)C(F)(F)F)cc4Cl)c(C4CC4)c3F)C2)C1 [Example 92, 2-(2-chloro-2′-cyclopropyl-3′,6′-difluoro-4′-((6-(methylsulfonyl)-2,6-diazaspiro[3.3]heptan-2-yl)methyl)-[1,1′-biphenyl]-4-yl)-1,1,1,3,3,3-hexafluoropropan-2-ol]
7 | 0.05 to 0.25 | CCc1cc(CN2CC3(C2)C[S+]([O-])C3)ccc1-c1ccc(C(O)(C(F)(F)F)C(F)(F)F)cc1 [Example 27, 6-((2-ethyl-4′-(1,1,1,3,3,3-hexafluoro-2-hydroxypropan-2-yl)-[1,1′-biphenyl]-4-yl)methyl)-2-thia-6-azaspiro[3.3]heptane 2-oxide]
8 | < 0.05 | CCc1cc(CN2CC3(C2)CN(S(C)(=O)=O)C3)c(F)cc1-c1ccc(C(O)(C(F)(F)F)C(F)(F)F)cc1F [Example 82, 2-(2′-ethyl-2,5′-difluoro-4′-((6-(methylsulfonyl)-2,6-diazaspiro[3.3]heptan-2-yl)methyl)-[1,1′-biphenyl]-4-yl)-1,1,1,3,3,3-hexafluoropropan-2-ol]
9 | 0.05 to 0.25 | CCc1cc(CN2CC3(C2)CS(=O)(=O)C3)ccc1-c1ccc(C(O)(C(F)(F)F)C(F)(F)F)cc1 [Example 26, 6-((2-ethyl-4′-(1,1,1,3,3,3-hexafluoro-2-hydroxypropan-2-yl)-[1,1′-biphenyl]-4-yl)methyl)-2-thia-6-azaspiro[3.3]heptane 2,2-dioxide]
10 | < 0.05 | C=C(C)c1cc(CN2CC3(C2)CN(S(C)(=O)=O)C3)ccc1-c1ccc(C(O)(C(F)(F)F)C(F)(F)F)cc1 [Example 44, 1,1,1,3,3,3-hexafluoro-2-(4′-((6-(methylsulfonyl)-2,6-diazaspiro[3.3]heptan-2-yl)methyl)-2′-(prop-1-en-2-yl)-[1,1′-biphenyl]-4-yl)propan-2-ol]
11 | < 0.05 | CCc1cc(CN2CC3(C2)CN(S(C)(=O)=O)C3)ccc1-c1ccc(C(O)(C(F)(F)F)C(F)(F)F)cc1C [Example 39, 2-(2′-ethyl-2-methyl-4′-((6-(methylsulfonyl)-2,6-diazaspiro[3.3]heptan-2-yl)methyl)-[1,1′-biphenyl]-4-yl)-1,1,1,3,3,3-hexafluoropropan-2-ol]
12 | 0.05 to 0.25 | CCc1cc(CN2CCC3(CCNC3=O)C2)ccc1-c1ccc(C(O)(C(F)(F)F)C(F)(F)F)cc1 (centres unmarked) [Example 53, 7-((2-ethyl-4′-(1,1,1,3,3,3-hexafluoro-2-hydroxypropan-2-yl)-[1,1′-biphenyl]-4-yl)methyl)-2,7-diazaspiro[4.4]nonan-1-one]
13 | 0.05 to 0.25 | CCc1cc(CN2CC3(C2)CN(S(C)(=O)=O)C3)cnc1-c1ccc(C(O)(C(F)(F)F)C(F)(F)F)cc1 [Example 52, 2-(4-(3-ethyl-5-((6-(methylsulfonyl)-2,6-diazaspiro[3.3]heptan-2-yl)methyl)pyridin-2-yl)phenyl)-1,1,1,3,3,3-hexafluoropropan-2-ol]
14 | < 0.05 | Cc1cc(C(O)(C(F)(F)F)C(F)(F)F)ccc1-c1ccc(CN2CCC3(C2)CS(=O)(=O)C3)cc1C(C)C [Example 11, 6-((4′-(1,1,1,3,3,3-hexafluoro-2-hydroxypropan-2-yl)-2-isopropyl-2′-methyl-[1,1′-biphenyl]-4-yl)methyl)-2-thia-6-azaspiro[3.4]octane 2,2-dioxide]
15 | 0.05 to 0.25 | CCc1cc(CN2CC3(CCS(=O)(=O)C3)C2)ccc1-c1ccc(C(O)(C(F)(F)F)C(F)(F)F)cc1 [Example 24, 2-((2-ethyl-4′-(1,1,1,3,3,3-hexafluoro-2-hydroxypropan-2-yl)-[1,1′-biphenyl]-4-yl)methyl)-6-thia-2-azaspiro[3.4]octane 6,6-dioxide]
16 | < 0.05 | CCc1cc(CN2CC3(C2)CN(S(C)(=O)=O)C3)ccc1-c1ccc(C(O)(C(F)(F)F)C(F)(F)F)cc1CC [Example 77, 2-(2,2′-diethyl-4′-((6-(methylsulfonyl)-2,6-diazaspiro[3.3]heptan-2-yl)methyl)-[1,1′-biphenyl]-4-yl)-1,1,1,3,3,3-hexafluoropropan-2-ol]
17 | < 0.05 | CCc1cc(CN2CCCC3(C2)CN(S(C)(=O)=O)C3)ccc1-c1ccc(C(O)(C(F)(F)F)C(F)(F)F)cc1 [Example 5, 2-(2′-ethyl-4′-((2-(methylsulfonyl)-2,6-diazaspiro[3.5]nonan-6-yl)methyl)-[1,1′-biphenyl]-4-yl)-1,1,1,3,3,3-hexafluoropropan-2-ol]
18 | < 0.05 | CCc1cc(CN2CC3(C2)CN(S(C)(=O)=O)C3)c(F)cc1-c1ccc(C(O)(C(F)(F)F)C(F)(F)F)cc1 [Example 36, 2-(2′-ethyl-5′-fluoro-4′-((6-(methylsulfonyl)-2,6-diazaspiro[3.3]heptan-2-yl)methyl)-[1,1′-biphenyl]-4-yl)-1,1,1,3,3,3-hexafluoropropan-2-ol]
19 | < 0.05 | CC(C)c1cc(CN2CC3(C2)CN(S(C)(=O)=O)C3)ccc1-c1ccc(C(O)(C(F)(F)F)C(F)(F)F)cc1 [Example 43, 1,1,1,3,3,3-hexafluoro-2-(2′-isopropyl-4′-((6-(methylsulfonyl)-2,6-diazaspiro[3.3]heptan-2-yl)methyl)-[1,1′-biphenyl]-4-yl)propan-2-ol]
20 | 0.05 to 0.25 | Cc1cc(CN2CC3(C2)CN(S(C)(=O)=O)C3)ccc1-c1ccc(C(O)(C(F)(F)F)C(F)(F)F)cc1 [Example 50, 1,1,1,3,3,3-hexafluoro-2-(2′-methyl-4′-((6-(methylsulfonyl)-2,6-diazaspiro[3.3]heptan-2-yl)methyl)-[1,1′-biphenyl]-4-yl)propan-2-ol]
21 | 0.05 to 0.25 | CS(=O)(=O)N1CC2(CN(Cc3ccc(-c4ccc(C(O)(C(F)(F)F)C(F)(F)F)cc4)c(C(F)(F)F)c3)C2)C1 [Example 46, 1,1,1,3,3,3-hexafluoro-2-(4′-((6-(methylsulfonyl)-2,6-diazaspiro[3.3]heptan-2-yl)methyl)-2′-(trifluoromethyl)-[1,1′-biphenyl]-4-yl)propan-2-ol]
22 | 0.05 to 0.25 | CCc1cc(CN2CC3(C2)CN(C(=O)OC(C)(C)C)C3)ccc1-c1ccc(C(O)(C(F)(F)F)C(F)(F)F)cc1 [Example 1, tert-butyl 6-((2-ethyl-4′-(1,1,1,3,3,3-hexafluoro-2-hydroxypropan-2-yl)-[1,1′-biphenyl]-4-yl)methyl)-2,6-diazaspiro[3.3]heptane-2-carboxylate]
23 | 0.05 to 0.25 | CCc1cc(CN2CCC3(C2)CS(=O)(=O)C3)ccc1-c1ccc(C(O)(C(F)(F)F)C(F)(F)F)cc1 [Example 17, 6-((2-ethyl-4′-(1,1,1,3,3,3-hexafluoro-2-hydroxypropan-2-yl)-[1,1′-biphenyl]-4-yl)methyl)-2-thia-6-azaspiro[3.4]octane 2,2-dioxide]
24 | < 0.05 | CC(C)c1c(F)c(CN2CC3(C2)CN(S(C)(=O)=O)C3)cc(F)c1-c1ccc(C(O)(C(F)(F)F)C(F)(F)F)cc1Cl [Example 87, 2-(2-chloro-3′,6′-difluoro-2′-isopropyl-4′-((6-(methylsulfonyl)-2,6-diazaspiro[3.3]heptan-2-yl)methyl)-[1,1′-biphenyl]-4-yl)-1,1,1,3,3,3-hexafluoropropan-2-ol]
25 | > 0.25 | CCc1cc(CN2CC(CN(C)S(C)(=O)=O)C2)ccc1-c1ccc(C(O)(C(F)(F)F)C(F)(F)F)cc1 [Example 29, N-((1-((2-ethyl-4′-(1,1,1,3,3,3-hexafluoro-2-hydroxypropan-2-yl)-[1,1′-biphenyl]-4-yl)methyl)azetidin-3-yl)methyl)-N-methylmethanesulfonamide]
26 | > 0.25 | CCc1cc(CN2CC3(CSC3)C2)ccc1-c1ccc(C(O)(C(F)(F)F)C(F)(F)F)cc1 [Example 28, 2-(4′-((2-thia-6-azaspiro[3.3]heptan-6-yl)methyl)-2′-ethyl-[1,1′-biphenyl]-4-yl)-1,1,1,3,3,3-hexafluoropropan-2-ol]
